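Five concentrations, 48 hours, 96-well plates. GI50 is the concentration that inhibits growth by half.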 Calls of active or inactive are those of the source. No stated cut-off is given here; in the data, active = GI50 up to about 1.1 µM and inactive = higher.
What was measured:
Experiment in all cases: DTP human tumour cell line panel, 48 h
[1] = system: SF-539
[2] = system: UACC-257
[3] = system: HOP-62
[4] = system: HCC 2998
[5] = system: KM12
[6] = system: DU-145
[7] = system: MOLT-4
[8] = system: SF-268
[9] = system: CAKI-1
[10] = system: HCT-15
[11] = system: OVCAR-4
[12] = system: A549
[13] = system: RXF 393
[14] = system: IGROV-1
[15] = system: U-251
[16] = system: MDA-N
[17] = system: RPMI-8226
[18] = system: MDA-MB-231
[19] = system: A498
[20] = system: LOX IMVI

Measured: GI50

CC(CC(C)(C)[N+](C)(C)C)[N+](C)(C)C (stereo unspecified)
> 100 µM: [10]
inactive: [1] > 100 µM | [2] > 100 µM | [3] > 100 µM | [4] > 100 µM | [5] > 100 µM | [6] > 100 µM | [7] > 100 µM | [8] > 100 µM | [9] > 100 µM | [11] > 100 µM | [12] > 100 µM | [13] > 100 µM | [14] > 100 µM | [15] > 100 µM | [16] > 100 µM | [17] > 100 µM

CCOC(=O)c1cc2c(OC(C)=O)ccc(OC(C)=O)c2s1
inactive: [1] 1.73 µM | [2] 1.95 µM | [3] 10.3 µM | [18] 2.02 µM | [4] 8.97 µM | [5] 4.52 µM | [6] 4.83 µM | [7] 2.58 µM | [8] 1.79 µM | [9] 4.35 µM | [11] 4.75 µM | [12] 10.7 µM | [13] 1.56 µM | [14] 1.76 µM | [19] 5.28 µM | [15] 2.97 µM | [17] 2.31 µM
1.75 µM: [10]
active: [20] 0.891 µM

COc1ccc(/C=C2\C[C@H]3[C@@H]4CC=C5C[C@@H](OC(C)=O)CC[C@]5(C)[C@H]4CC[C@]3(C)\C2=N\O)cc1OC
9.44 µM: [10]
inactive: [1] 31 µM | [2] 14.9 µM | [3] 31.7 µM | [4] 16.2 µM | [5] 9.27 µM | [6] 39.4 µM | [7] 3.6 µM | [8] > 100 µM | [9] 11.2 µM | [11] 11.4 µM | [12] 5.12 µM | [13] 7.4 µM | [14] 53.3 µM | [19] 19.3 µM | [20] 13.3 µM | [16] 10.4 µM | [17] 4.86 µM

Cn1c(=O)oc2cc(C(O)CN3CCN(Cc4ccc5c(c4)OCO5)CC3)ccc21 (stereo unspecified)
> 100 µM: [10]
inactive: [1] > 100 µM | [2] > 100 µM | [3] > 100 µM | [18] > 100 µM | [4] > 100 µM | [5] > 100 µM | [6] > 100 µM | [7] > 100 µM | [8] > 100 µM | [9] > 100 µM | [11] > 100 µM | [12] > 100 µM | [13] > 100 µM | [14] > 100 µM | [19] > 100 µM | [15] > 100 µM | [20] > 100 µM

CC(C)(C)C(=O)O[C@H]1C=C[C@@H](O)[C@@H]2[C@H]1[C@@H]1C=C[C@H]2C1
20 µM: [10]
inactive: [1] 26.5 µM | [2] 6.52 µM | [18] 19.2 µM | [4] 14.9 µM | [5] 2.63 µM | [6] 47.6 µM | [7] 13.4 µM | [8] 27.9 µM | [9] 71 µM | [11] 21.2 µM | [12] 30 µM | [14] 3.06 µM | [19] 20.3 µM | [15] 28.8 µM | [20] 21.4 µM | [16] 19.3 µM | [17] 17.1 µM

COC(=O)c1cc(OCc2cc(OCc3ccc(Br)cc3)cc(OCc3ccc(Br)cc3)c2)cc(OCc2cc(OCc3ccc(Br)cc3)cc(OCc3ccc(Br)cc3)c2)c1
> 100 µM: [10]
inactive: [1] 14.1 µM | [2] > 100 µM | [3] > 100 µM | [18] > 100 µM | [4] > 100 µM | [5] > 100 µM | [6] > 100 µM | [7] > 100 µM | [8] > 100 µM | [9] > 100 µM | [11] > 100 µM | [12] > 100 µM | [19] > 100 µM | [15] > 100 µM | [16] > 100 µM | [17] > 100 µM

COc1ccccc1N/C(SCc1ccccc1)=C(/C(Cl)=C(Cl)Cl)[N+](=O)[O-]
20.7 µM: [10]
inactive: [1] 17.4 µM | [2] 85.3 µM | [3] 28.6 µM | [18] 18.7 µM | [5] 34 µM | [6] 26.7 µM | [7] 28.2 µM | [8] 18.6 µM | [9] 28.8 µM | [11] 22 µM | [12] 30.4 µM | [19] 82.8 µM | [15] 21.1 µM | [16] 28.9 µM | [17] 26.6 µM

O=C1c2ccccc2-c2c1c1ccccc1c(=O)n2Cc1ccco1
> 100 µM: [10]
inactive: [1] 39.6 µM | [2] > 100 µM | [3] 47.1 µM | [18] > 100 µM | [5] > 100 µM | [6] > 100 µM | [7] > 100 µM | [8] > 100 µM | [9] > 100 µM | [12] > 100 µM | [14] > 100 µM | [19] > 100 µM | [15] > 100 µM | [20] > 100 µM | [16] > 100 µM | [17] > 100 µM

CCOC(=O)C(NC(=O)c1cccc(Cl)c1)(Nc1ccc(S(=O)(=O)Nc2cc(C)nc(C)n2)cc1)C(F)(F)F (stereo unspecified)
> 100 µM: [10]
inactive: [1] > 100 µM | [2] > 100 µM | [3] > 100 µM | [18] > 100 µM | [4] > 100 µM | [5] > 100 µM | [6] > 100 µM | [7] > 100 µM | [8] > 100 µM | [9] > 100 µM | [11] > 100 µM | [12] > 100 µM | [14] > 100 µM | [19] > 100 µM | [15] > 100 µM | [20] > 100 µM | [17] > 100 µM

COc1ccc(CNc2nc(NCc3ccc(OC)cc3)nc(NC3CCCCC3)n2)cc1
inactive: [1] 3.01 µM | [2] 53.8 µM | [3] 5.5 µM | [18] 2.48 µM | [5] 1.5 µM | [6] 2.9 µM | [7] > 100 µM | [8] 2.24 µM | [11] 10 µM | [12] 2 µM | [14] 2.09 µM | [19] 48.6 µM | [15] 3.03 µM | [20] 3.13 µM | [17] 3.21 µM
2.13 µM: [10]
active: [4] 1.11 µM | [9] 1.07 µM | [16] 0.65 µM

CCOP(=O)(OCC)C(C)(C)N(C)/C(F)=N/C(F)(F)F
inactive: [1] > 100 µM | [2] > 100 µM | [3] > 100 µM | [18] > 100 µM | [4] > 100 µM | [5] > 100 µM | [6] > 100 µM | [7] > 100 µM | [8] > 100 µM | [9] > 100 µM | [11] > 100 µM | [12] > 100 µM | [14] > 100 µM | [15] > 100 µM | [20] > 100 µM | [16] > 100 µM | [17] > 100 µM
> 100 µM: [10]

O=c1cc(-c2ccc(O)cc2)n(C2CC2)c2ccccc12
4.08 µM: [10]
inactive: [1] 5.38 µM | [2] 10.2 µM | [3] 4.41 µM | [18] 8.47 µM | [5] 3.45 µM | [6] 3.64 µM | [7] 50.9 µM | [8] 7.29 µM | [9] 4.42 µM | [12] 4.52 µM | [13] 2.82 µM | [14] 5.3 µM | [15] 5.31 µM | [20] 4.67 µM | [16] 10.6 µM | [17] 3.35 µM

CC(=O)O[C@@H]1CC2[C@@H](CCC3Cc4nc5c(nc4C[C@@]32C)CC2CC[C@@H]3C(CC[C@@]4(C)C3CC[C@@H]4C(C)CCCC(C)C)[C@@]2(C)C5)C2C[C@@H]3OC4(CCC(C)CO4)C(C)[C@@H]3[C@]21C (stereo partly specified)
> 100 µM: [10]
inactive: [1] > 100 µM | [2] > 100 µM | [3] 22.8 µM | [18] > 100 µM | [4] > 100 µM | [5] > 100 µM | [6] > 100 µM | [7] > 100 µM | [8] 39.3 µM | [11] > 100 µM | [12] > 100 µM | [13] 19.9 µM | [14] > 100 µM | [15] 84.1 µM | [16] > 100 µM | [17] > 100 µM

COC(=O)[C@@H](O)[C@]1(C(=O)OC)C2O[C@@H](OC)[C@@H]1CCCCCC[C@H]2O
> 100 µM: [10]
inactive: [1] > 100 µM | [2] > 100 µM | [3] > 100 µM | [18] > 100 µM | [4] > 100 µM | [5] > 100 µM | [7] > 100 µM | [8] > 100 µM | [9] > 100 µM | [11] > 100 µM | [12] > 100 µM | [13] > 100 µM | [14] > 100 µM | [15] > 100 µM | [20] > 100 µM | [16] > 100 µM | [17] > 100 µM

CC(C)(C)[Si](C)(C)OCC1OC(n2ccc(=O)[nH]c2=O)C(O[Si](C)(C)C(C)(C)C)[C@]12O[C@@H]2CO (stereo partly specified)
inactive: [1] 21.5 µM | [2] 18.2 µM | [3] 16 µM | [18] 19.5 µM | [4] 20.8 µM | [5] 14.8 µM | [6] 19.4 µM | [7] 8.3 µM | [8] 19.4 µM | [9] 20.4 µM | [11] 13.6 µM | [12] 10.9 µM | [14] 16.3 µM | [19] 18.6 µM | [15] 15.6 µM | [20] 16.3 µM | [16] 20.9 µM | [17] 55.3 µM
11.9 µM: [10]

From ChEMBL document CHEMBL1201862, “PubChem BioAssay data set” (2004)
